Assay results published in PMC4111866, “Enhancement in corneal permeability of riboflavin using calcium sequestering compounds” (International Journal of Pharmaceutics, 2014).
“Also recorded” adds a separate entry of the source.

Key:
[1] = test system: bovine cornea; assay: Cornea extracts: riboflavin absorbed into cornea, ethanol extraction and HPLC; format: in vitro ADME; settings: n = 3; for Riboflavin pg mg^−1 cornea: riboflavin in PBS pH 7.4 ± 0.2 without chelator
Description: Analysis was conducted using a PerkinElmer series 200 HPLC system comprising of 785 A UV–vis detector, series 200 quaternary pump and series 200 autosampler (PerkinElmer Inc., UK), Hamilton PRP-1 reversed phase column, 150 mm × 4.1 mm, 10 μm (part number: 79425) and data acquisition software (Peaksimple, version 4.09, SRI Inc., USA). […] Isocratic conditions were used at 25 °C with the mobile phase comprising of 20% ethanol and 80% ion-pair buffer, flow rate 0.8 mL min^−1, 10 μL injection volume, UV detector at 267 nm corresponding to riboflavin absorption λmax, a retention time of 3.05 min. Quantitation was achieved by reference to a calibration curve produced from riboflavin standards in PBS, pH 7.4 ± 0.2 at concentrations ranging from 0.01 to 25 μg mL^−1 (r^2 = 0.9996).
Corneas from the riboflavin permeability experiment were trimmed of sclera, gently blotted with tissue paper, weighed and placed in glass vials to which 5 mL absolute ethanol was added to extract absorbed riboflavin. Differences in its accumulation within the corneas between different solutions were compared. The vials were stored at room temperature shielded from light for three days. From these vials, 1 mL of extract solvent was centrifuged at 10,000 rpm for 10 min, and the supernatant transferred to autosample vials for HPLC analysis.

[2] = Corneal permeability of riboflavin in Franz diffusion cells; format: in vitro ADME, bovine; design: Steady-state flux of riboflavin / Papp at 240 min: dose or concentration left out as unconfirmed; settings: bovine, pH 7.4
Description: (§1) Analysis was conducted using a PerkinElmer series 200 HPLC system comprising of 785 A UV-vis detector, series 200 quaternary pump and series 200 autosampler (PerkinElmer Inc., UK), Hamilton PRP-1 reversed phase column, 150 mm × 4.1 mm, 10 μm (part number: 79425) and data acquisition software ([…], version 4.09, SRI Inc., USA). […] Bovine corneas were mounted in Franz diffusion cells (FDC), epithelium side facing the donor compartment. The receiver compartment was filled with pre-warmed and degassed PBS (16.5 mL). […] Riboflavin is known to be photodegradable ([Terekhova et al., 2011]), therefore the whole experiment was shielded with aluminium foil. Sink conditions were employed with 0.4 mL aliquots taken every 60 min for 240 min. HPLC analysis was carried out immediately after all samples had been collected to avoid drug degradation.

[3] = test system: bovine cornea; assay: as above; format: in vitro ADME; design: Steady-state flux of riboflavin / Papp at 240 min: dose or concentration left out as unconfirmed
Description: as §1

[4] = test system: bovine cornea epithelium; assay: Corneal integrity: fluorescence microscopy of DAPI-stained cornea sections after exposure; settings: chelator 1 mg mL^−1 in PBS pH 7.4 ± 0.2, 3 h exposure; PBS shows no disruption
Description: A Franz diffusion cell donor chamber was placed on the cornea as a means to contain the dose; the setup was wrapped in cling-film ensuring a good seal between the donor chamber and the cornea; these were placed in a water bath at 34 ± 1 °C. Individual eyes were exposed to PBS or solutions of EDTA, EGTA or EDDS at 1 mg mL^−1 in PBS, all at pH 7.4 ± 0.2 by placing 1 mL solution onto the cornea.
From the above experiment, corneas were dissected after exposure, and sections were prepared for microscopy by setting cornea segments in OCT, quick freezing on dry ice and subsequent sectioning. […] Specimens were stained using Vectashield with DAPI mounting medium, and a glass coverslip applied. All cornea sections were examined within seven days of preparation using an AXIOCAM MRm 1.3 MP digital camera attached to a Zeiss AXIO Imager A1 fluorescent microscope, using AXIO Vs 40 V.4.8.2.0 software (Zeiss, Oberkochen, Germany). A 10× magnification eyepiece together with a 5× magnification objective lens was employed, and DAPI fluorescence filter was selected.

[5] = test system: bovine cornea; assay: Transepithelial electrical resistance (TEER) of cornea in Ussing chambers; settings: chelator 1 mg mL^−1 in PBS in donor chamber, 120 min, 34 °C, baseline deducted; initial 2.28 ± 0.06, PBS control 1.93 ± 0.04
[6] = test system: bovine cornea; assay: Whole eye experiment: Ca^2+ extraction from cornea, analysed by atomic absorption spectrometry; settings: chelator 1 mg mL^−1 in PBS pH 7.4 ± 0.2, 3 h exposure of whole bovine eye cornea, 34 °C, n = 3; PBS alone 54.67 ± 7.04 ppm
Description: Calcium ion analysis was conducted using a novAA 350 system with […] software, version 4.5.0 (Analytik JENA, Germany). […] Quantitation achieved by reference to a calibration curve produced from Ca^2+ standards in ultrapure water incorporating 5% w/v lanthanum chloride as a releasing agent.

SMILES | mean amount of riboflavin extracted from cornea ([1]; corneas after permeability experiment, riboflavin 0.1 mg mL^−1 in PBS without chelator) | Riboflavin pg mg^−1 cornea [1] | Riboflavin pg mg^−1 cornea ([1]; listed as riboflavin) | Papp at 240 min [2] | concentration of riboflavin in the receiving solution at 240 min ([3]; riboflavin 0.1 mg mL^−1 in PBS pH 7.4 without chelator, 34 °C) | Steady-state flux of riboflavin ([3]; riboflavin solution in PBS without chelator) | histological changes of corneal epithelium [4] | TEER value after 2 h [5] | calcium sequestering performance from bovine cornea (Ca^2+ concentration in solution) [6]
Cc1cc2nc3c(=O)[nH]c(=O)nc-3n(C[C@H](O)[C@H](O)[C@H](O)CO)c2cc1C [Riboflavin, riboflavin] | 50.41 ± 2.80 ng | 62.46 ± 0.98 pg/mg | 62.46 pg/mg | 1940 ± 325 ×10⁻⁶ cm/s | 5.74 ± 0.96 ng/mL | 0.0478 ± 0.0080 µmol/min | – | – | –
O=C(O)CN(CCOCCOCCN(CC(=O)O)CC(=O)O)CC(=O)O [EGTA, ethylene glycol-bis(2-aminoethylether)-N,N,N′,N′-tetraacetic acid] | – | – | – | – | – | – | intense disruption to the superficial epithelial layers and a relatively undisturbed basal layer | 1.42 ± 0.02 kΩ cm^2 | 119.57 ± 27.28 ppm
O=C(O)CC(NCCNC(CC(=O)O)C(=O)O)C(=O)O (stereo not drawn) [EDDS, ethylenediamine-N,N′-disuccinic acid] | – | – | – | – | – | – | some swelling with voids throughout this layer | 1.62 ± 0.04 kΩ cm^2 | 87.60 ± 3.30 ppm
O=C(O)CN(CCN(CC(=O)O)CC(=O)O)CC(=O)O [EDTA, Ethylenediaminetetraacetic acid] | – | – | – | – | – | – | some swelling with voids throughout this layer; also recorded: perforation seems to penetrate the whole of the epithelium | 1.38 ± 0.03 kΩ cm^2 | 98.97 ± 9.86 ppm
